Columns and labels:
[1] = system: bicistronic HCV replicon (replicon RNA, GenBank Accession No. AJ242654); assay: HCV Replicon Assay; assay type: cell-based; conditions: Hepatitis C virus, 72 h, read-out: Replicon IC50

| Compound | IC50 [1] [nM] | melting point [°C] |
| --- | --- | --- |
| Cc1cc2c(cc1F)c(C(N)=O)c(-c1ccc(S(=O)(=O)N[C@@H](C)C(F)(F)F)cn1)n2-c1ccc(F)cn1 [compound 876, 5-fluoro-1-(5-fluoropyridin-2-yl)-6-methyl-2-(5-{[(2S)-1,1,1-trifluoropropan-2-yl]sulfamoyl}pyridin-2-yl)-1H-indole-3-carboxamide] | < 500 | 224 to 228 |
| Cc1cc2c(cc1F)c(C(N)=O)c(-c1ccc(S(=O)(=O)N[C@@H](C)C(F)(F)F)cn1)n2-c1cccc(F)n1 [compound 877, 5-fluoro-1-(6-fluoropyridin-2-yl)-6-methyl-2-(5-{[(2S)-1,1,1-trifluoropropan-2-yl]sulfamoyl}pyridin-2-yl)-1H-indole-3-carboxamide] | < 500 | 210 to 214 |
| CCc1cc2c(cc1F)c(C#N)c(-c1ccc(S(=O)(=O)N[C@H](C)C(F)(F)F)cn1)n2-c1ccc(F)cn1 [compound 880, 6-[3-cyano-6-ethyl-5-fluoro-1-(5-fluoropyridin-2-yl)-1H-indol-2-yl]-N-[(2R)-1,1,1-trifluoropropan-2-yl]pyridine-3-sulfonamide] | < 500 | 209 to 216 |
| CCc1cc2c(cc1F)c(C#N)c(-c1ccc(S(=O)(=O)N[C@@H](C)C(F)(F)F)c(C)n1)n2-c1ncccn1 [compound 881, 6-[3-cyano-6-ethyl-5-fluoro-1-(pyrimidin-2-yl)-1H-indol-2-yl]-2-methyl-N-[(2S)-1,1,1-trifluoropropan-2-yl]pyridine-3-sulfonamide] | < 500 | 258 to 262 |
| CCc1cc2c(cc1F)c(C#N)c(-c1ccc(S(=O)(=O)NC(C)(C)C)cn1)n2-c1ccccn1 [compound 882, N-tert-butyl-6-[3-cyano-6-ethyl-5-fluoro-1-(pyridin-2-yl)-1H-indol-2-yl]pyridine-3-sulfonamide] | < 500 | 200 to 205 |
| CCc1cc2c(cc1F)c(C#N)c(-c1ccc(S(=O)(=O)NC(C)(C)C)cn1)n2-c1ccccc1 [compound 884, N-tert-butyl-6-(3-cyano-6-ethyl-5-fluoro-1-phenyl-1H-indol-2-yl)pyridine-3-sulfonamide] | < 500 | 175 to 180 |
| Cc1ccc(-n2c(-c3ccc(S(=O)(=O)N[C@@H](C)C(F)(F)F)cn3)c(C#N)c3cc(F)c(C)cc32)nc1 [compound 885, 6-[3-cyano-5-fluoro-6-methyl-1-(5-methylpyridin-2-yl)-1H-indol-2-yl]-N-[(2S)-1,1,1-trifluoropropan-2-yl]pyridine-3-sulfonamide] | < 500 | 250 to 254 |
| Cc1ccnc(-n2c(-c3ccc(S(=O)(=O)N[C@@H](C)C(F)(F)F)cn3)c(C#N)c3cc(F)c(C)cc32)c1 [compound 886, 6-[3-cyano-5-fluoro-6-methyl-1-(4-methylpyridin-2-yl)-1H-indol-2-yl]-N-[(2S)-1,1,1-trifluoropropan-2-yl]pyridine-3-sulfonamide] | < 500 | 200 to 204 |
| CCc1cc2c(cc1F)c(C#N)c(-c1ccc(S(=O)(=O)N[C@@H](C)C(F)(F)F)c(C)n1)n2-c1ccccn1 [compound 887, 6-[3-cyano-6-ethyl-5-fluoro-1-(pyridin-2-yl)-1H-indol-2-yl]-2-methyl-N-[(2S)-1,1,1-trifluoropropan-2-yl]pyridine-3-sulfonamide] | < 500 | 219 to 224 |
| Cc1cc2c(cc1F)c(C#N)c(-c1ncc(S(=O)(=O)N[C@@H](C)C(F)(F)F)cc1C)n2-c1ncccn1 [compound 888, 6-[3-cyano-5-fluoro-6-methyl-1-(pyrimidin-2-yl)-1H-indol-2-yl]-5-methyl-N-[(2S)-1,1,1-trifluoropropan-2-yl]pyridine-3-sulfonamide] | < 500 | 201 to 204 |
| Cc1cc2c(cc1F)c(C#N)c(-c1ncc(S(=O)(=O)N[C@@H](C)C(F)(F)F)cc1C)n2-c1ccccn1 [compound 889, 6-[3-cyano-5-fluoro-6-methyl-1-(pyridin-2-yl)-1H-indol-2-yl]-5-methyl-N-[(2S)-1,1,1-trifluoropropan-2-yl]pyridine-3-sulfonamide] | < 500 | 197 to 202 |
| CCc1cc2c(cc1F)c(C#N)c(-c1cc(C)c(S(=O)(=O)N[C@H](C)C(F)(F)F)cn1)n2-c1ncccn1 [compound 890, 6-[3-cyano-6-ethyl-5-fluoro-1-(pyrimidin-2-yl)-1H-indol-2-yl]-4-methyl-N-[(2R)-1,1,1-trifluoropropan-2-yl]pyridine-3-sulfonamide] | < 500 | 231 to 236 |
| CCc1cc2c(cc1F)c(C#N)c(-c1cc(C)c(S(=O)(=O)N[C@H](C)C(F)(F)F)cn1)n2-c1ccccn1 [compound 891, 6-[3-cyano-6-ethyl-5-fluoro-1-(pyridin-2-yl)-1H-indol-2-yl]-4-methyl-N-[(2R)-1,1,1-trifluoropropan-2-yl]pyridine-3-sulfonamide] | < 500 | 178 to 183 |
| Cc1cc2c(cc1F)c(C#N)c(-c1ccc(S(=O)(=O)N[C@@H](C)C(F)(F)F)cn1)n2-c1cccnn1 [compound 892, 6-[3-cyano-5-fluoro-6-methyl-1-(pyridazin-3-yl)-1H-indol-2-yl]-N-[(2S)-1,1,1-trifluoropropan-2-yl]pyridine-3-sulfonamide] | < 500 | 245 to 250 |
| Cc1cc2c(cc1F)c(C#N)c(-c1ccc(S(=O)(=O)N[C@@H](C)C(F)(F)F)cn1)n2-c1cccnc1 [compound 893, 6-[3-cyano-5-fluoro-6-methyl-1-(pyridin-3-yl)-1H-indol-2-yl]-N-[(2S)-1,1,1-trifluoropropan-2-yl]pyridine-3-sulfonamide] | < 500 | 217 to 221 |
| Cc1cc2c(cc1F)c(C#N)c(-c1ccc(S(=O)(=O)N[C@@H](C)C(F)(F)F)cn1)n2-c1cncnc1 [compound 894, 6-[3-cyano-5-fluoro-6-methyl-1-(pyrimidin-5-yl)-1H-indol-2-yl]-N-[(2S)-1,1,1-trifluoropropan-2-yl]pyridine-3-sulfonamide] | < 500 | 198 to 202 |
| C[C@H](NS(=O)(=O)c1ccc(-c2c(C#N)c3cc(F)c(Br)cc3n2-c2ncccn2)nc1)C(F)(F)F [compound 895, 6-[6-bromo-3-cyano-5-fluoro-1-(pyrimidin-2-yl)-1H-indol-2-yl]-N-[(2S)-1,1,1-trifluoropropan-2-yl]pyridine-3-sulfonamide] | < 500 | 224 to 226 |
| Cc1cc2c(cc1F)c(C#N)c(-c1ccc(S(=O)(=O)N[C@@H](C)C(F)(F)F)cn1)n2-c1ccncn1 [compound 896, 6-[3-cyano-5-fluoro-6-methyl-1-(pyrimidin-4-yl)-1H-indol-2-yl]-N-[(2S)-1,1,1-trifluoropropan-2-yl]pyridine-3-sulfonamide] | < 500 | 214 to 219 |
| C[C@H](NS(=O)(=O)c1ccc(-c2c(C#N)c3cc(C(F)(F)F)ccc3n2-c2cnccn2)nc1)C(F)(F)F [compound 897, 6-[3-cyano-1-(pyrazin-2-yl)-5-(trifluoromethyl)-1H-indol-2-yl]-N-[(2S)-1,1,1-trifluoropropan-2-yl]pyridine-3-sulfonamide] | < 500 | 255 to 258 |
| C[C@H](NS(=O)(=O)c1ccc(-c2c(C#N)c3cc(OC(F)(F)F)ccc3n2-c2cnccn2)nc1)C(F)(F)F [compound 898, 6-[3-cyano-1-(pyrazin-2-yl)-5-(trifluoromethoxy)-1H-indol-2-yl]-N-[(2S)-1,1,1-trifluoropropan-2-yl]pyridine-3-sulfonamide] | 500 to 2000 | 191 to 195 |
| CCc1cc2c(cc1F)c(C#N)c(-c1ccc(S(=O)(=O)NC(C)(C)C)cn1)n2-c1cnccn1 [compound 899, N-tert-butyl-6-[3-cyano-6-ethyl-5-fluoro-1-(pyrazin-2-yl)-1H-indol-2-yl]pyridine-3-sulfonamide] | < 500 | 196 to 201 |
| CCc1cc2c(cc1F)c(C#N)c(-c1ccc(S(=O)(=O)NC(C)(C)C)cn1)n2-c1ncccc1F [compound 900, N-tert-butyl-6-[3-cyano-6-ethyl-5-fluoro-1-(3-fluoropyridin-2-yl)-1H-indol-2-yl]pyridine-3-sulfonamide] | 500 to 2000 | 200 to 203 |
| Cc1cc2c(C#N)c(-c3ccc(S(=O)(=O)N[C@@H](C)C(F)(F)F)cn3)n(-c3ncccn3)c2cc1F [compound 901, 6-[3-cyano-6-fluoro-5-methyl-1-(pyrimidin-2-yl)-1H-indol-2-yl]-N-[(2S)-1,1,1-trifluoropropan-2-yl]pyridine-3-sulfonamide] | < 500 | 125 to 130 |
| Cc1cc2c(cc1F)c(C(N)=O)c(-c1ccc(S(=O)(=O)N[C@@H](C)C(F)(F)F)cn1)n2-c1ncccc1F [compound 902, 5-fluoro-1-(3-fluoropyridin-2-yl)-6-methyl-2-(5-{[(2S)-1,1,1-trifluoropropan-2-yl]sulfamoyl}pyridin-2-yl)-1H-indole-3-carboxamide] | 500 to 2000 | 130 to 138 |
| Cc1cc2c(cc1F)cc(-c1ccc(S(=O)(=O)N[C@@H](C)C(F)(F)F)cn1)n2-c1nccs1 [compound 903, 6-[5-fluoro-6-methyl-1-(1,3-thiazol-2-yl)-1H-indol-2-yl]-N-[(2S)-1,1,1-trifluoropropan-2-yl]pyridine-3-sulfonamide] | < 500 | 224 to 230 |
| Cc1cnc(-n2c(-c3ccc(S(=O)(=O)N[C@@H](C)C(F)(F)F)cn3)c(C(N)=O)c3cc(F)c(C)cc32)cn1 [compound 904, 5-fluoro-6-methyl-1-(5-methylpyrazin-2-yl)-2-(5-{[(2S)-1,1,1-trifluoropropan-2-yl]sulfamoyl}pyridin-2-yl)-1H-indole-3-carboxamide] | < 500 | 202 to 208 |
| Cc1ccnc(-n2c(-c3ccc(S(=O)(=O)N[C@@H](C)C(F)(F)F)cn3)c(C(N)=O)c3cc(F)c(C)cc32)n1 [compound 905, 5-fluoro-6-methyl-1-(4-methylpyrimidin-2-yl)-2-(5-{[(2S)-1,1,1-trifluoropropan-2-yl]sulfamoyl}pyridin-2-yl)-1H-indole-3-carboxamide] | < 500 | 205 to 210 |

From US8735414B2 (priority 2009, dated 2014)
